Source: BindingDB's records for PubMed 34355178 (n/a, 2021)
pEC50: −log10 of the molar value.

Molecular target: T1, Toll-like receptor 7 (Homo sapiens, UniProt Q9NYK1)
T1 sequence (Q9NYK1 whole entry): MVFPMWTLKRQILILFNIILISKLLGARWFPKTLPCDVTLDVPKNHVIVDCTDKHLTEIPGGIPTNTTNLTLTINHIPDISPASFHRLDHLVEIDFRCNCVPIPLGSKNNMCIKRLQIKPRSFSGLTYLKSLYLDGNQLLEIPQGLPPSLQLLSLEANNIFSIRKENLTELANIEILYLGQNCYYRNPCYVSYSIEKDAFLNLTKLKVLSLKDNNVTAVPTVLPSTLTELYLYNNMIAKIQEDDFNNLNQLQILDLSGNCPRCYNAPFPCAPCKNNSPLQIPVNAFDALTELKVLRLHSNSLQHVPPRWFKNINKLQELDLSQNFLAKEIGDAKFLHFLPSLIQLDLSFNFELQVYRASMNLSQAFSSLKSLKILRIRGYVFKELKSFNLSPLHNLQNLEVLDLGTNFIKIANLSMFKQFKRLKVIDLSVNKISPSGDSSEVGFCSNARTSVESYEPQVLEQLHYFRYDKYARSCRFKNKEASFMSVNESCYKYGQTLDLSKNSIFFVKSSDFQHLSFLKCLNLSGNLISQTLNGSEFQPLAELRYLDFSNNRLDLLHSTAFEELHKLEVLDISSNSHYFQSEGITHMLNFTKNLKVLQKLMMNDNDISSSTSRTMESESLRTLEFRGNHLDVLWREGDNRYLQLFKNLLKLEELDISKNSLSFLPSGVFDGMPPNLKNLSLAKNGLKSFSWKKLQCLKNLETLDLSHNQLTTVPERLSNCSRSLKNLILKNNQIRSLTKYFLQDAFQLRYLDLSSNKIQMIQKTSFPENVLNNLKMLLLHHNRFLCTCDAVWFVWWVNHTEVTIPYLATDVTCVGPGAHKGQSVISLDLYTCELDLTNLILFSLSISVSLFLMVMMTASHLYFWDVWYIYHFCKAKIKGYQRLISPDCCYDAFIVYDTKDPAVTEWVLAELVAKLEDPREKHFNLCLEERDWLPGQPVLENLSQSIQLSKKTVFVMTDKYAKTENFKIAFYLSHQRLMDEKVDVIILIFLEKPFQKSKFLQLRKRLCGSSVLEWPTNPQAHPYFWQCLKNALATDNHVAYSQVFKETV
Assay: Agonist activity at human TLR7 in HEK-Blue hTLR7 cells assessed as activation of NFkappaB by SEAP reporter gene based spectrophotometry assay

pEC50 | SMILES
5.09 | CC[C@H](C)c1nc2c(N)nc3ccccc3c2s1
5.09 | CCCc1nc2c(N)nc3ccc(N)cc3c2s1
